Assay results reported in patent US20050107306A1, “Treatment of respiratory disease associated with matrix metalloproteases by inhalation of synthetic matrix metalloprotease inhibitors” (priority 2003, published 2005).

How the values were obtained:
MMP-1 (collagenase-1) = target: T1, MMP-1 (collagenase-1) (Homo sapiens, UniProt P03956); conditions: read-out: MMP-1 (collagenase-1) Kl; cited from earlier work
T1 sequence (P03956 100-469): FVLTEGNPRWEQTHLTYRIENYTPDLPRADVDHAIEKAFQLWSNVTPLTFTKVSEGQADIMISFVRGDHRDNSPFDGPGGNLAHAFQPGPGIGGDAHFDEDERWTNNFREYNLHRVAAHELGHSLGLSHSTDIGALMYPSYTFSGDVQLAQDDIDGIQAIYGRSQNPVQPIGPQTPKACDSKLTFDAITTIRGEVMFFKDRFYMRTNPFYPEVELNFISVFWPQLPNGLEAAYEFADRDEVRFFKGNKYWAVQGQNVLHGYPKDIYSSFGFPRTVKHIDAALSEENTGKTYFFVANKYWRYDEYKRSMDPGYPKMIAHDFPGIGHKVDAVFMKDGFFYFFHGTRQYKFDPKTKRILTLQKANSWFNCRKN

MMP-3 (stromelysin) = MMP-3 (stromelysin) (Homo sapiens, UniProt P08254); conditions: read-out: MMP-3 (stromelysin) Kl; cited from earlier work
MMP-7 = target: T2, MMP-7 (Homo sapiens, UniProt P09237); conditions: read-out: MMP-7 Kl; cited from earlier work
T2 sequence (P09237 95-267): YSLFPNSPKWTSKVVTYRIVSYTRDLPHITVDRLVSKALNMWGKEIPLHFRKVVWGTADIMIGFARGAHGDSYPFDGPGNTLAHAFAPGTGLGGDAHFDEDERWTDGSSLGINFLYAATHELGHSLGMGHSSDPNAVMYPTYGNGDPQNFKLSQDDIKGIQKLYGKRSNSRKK

MMP-2 (gelatinase A) = target: T3, MMP-2 (gelatinase A) (Homo sapiens, UniProt P08253); conditions: read-out: MMP-2 (gelatinase A) Kl; cited from earlier work
T3 sequence (P08253 110-660): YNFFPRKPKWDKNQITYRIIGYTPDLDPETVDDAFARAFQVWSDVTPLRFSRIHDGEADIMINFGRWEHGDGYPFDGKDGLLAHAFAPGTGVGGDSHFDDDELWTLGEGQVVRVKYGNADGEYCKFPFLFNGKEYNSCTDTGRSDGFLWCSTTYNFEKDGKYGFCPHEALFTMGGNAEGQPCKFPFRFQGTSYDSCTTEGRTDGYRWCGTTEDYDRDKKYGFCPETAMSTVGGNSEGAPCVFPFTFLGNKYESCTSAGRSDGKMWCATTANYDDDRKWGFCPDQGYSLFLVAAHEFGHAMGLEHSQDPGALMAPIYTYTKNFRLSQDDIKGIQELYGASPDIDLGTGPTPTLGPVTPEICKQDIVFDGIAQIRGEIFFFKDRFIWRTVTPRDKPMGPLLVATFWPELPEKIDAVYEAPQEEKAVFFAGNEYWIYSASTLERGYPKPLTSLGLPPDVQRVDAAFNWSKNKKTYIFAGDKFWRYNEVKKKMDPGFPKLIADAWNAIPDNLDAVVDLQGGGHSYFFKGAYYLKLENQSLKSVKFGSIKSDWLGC

MMP-9 (gelatinase B) = MMP-9 (gelatinase B) (Homo sapiens, UniProt P14780); conditions: read-out: MMP-9 (gelatinase B) Kl; cited from earlier work
[1] = Solubility in liquid formulation; type: physicochemical; conditions: depending on the formulation, read-out: soluble in liquid formulation at levels up to
[2] = tested on: murine model of cigarette smoke-related emphysema; assay: Murine model of cigarette smoke-related emphysema: lung morphometry, mean linear intercept (Lm); type: in vivo; conditions: smoking mice
Experimental: Five groups of animals were studied. […] Group 1 animals (32 animals) were control non-smoking animals. Group 2 animals (32 animals) were administered aerosolized PBS (10 ml/5 animals) followed by cigarette smoke. […] All adult mice (12 weeks of age at initiation) were exposed to two cigarettes per day, 6 days/wk for up to 6 months. Within each treatment group there were 3 timepoints for analysis: 1 week, 3 months, and 6 months. […] Delivery proceeded until the nebulizer ran dry (about 30 minutes). […] All were prepared in sterile saline. Vehicle control animals received sterile saline only. In each animal, the right lung was removed and used for fixation/inflation and paraffin embedding to study morphometry, to determine mean linear intercept (Lm), which is the distance between the walls of alveoli, and which increases as proteases (e.g., elastase, metalloproteases) break down pulmonary structure.

[3] = tested on: murine model of cigarette smoke-related emphysema; assay: Murine model of cigarette smoke-related emphysema: inflammatory cells in bronchoalveolar lavage (BAL); type: in vivo; conditions: smoking mice
Experimental: Five groups of animals were studied. […] Group 1 animals (32 animals) were control non-smoking animals. Group 2 animals (32 animals) were administered aerosolized PBS (10 ml/5 animals) followed by cigarette smoke. […] All adult mice (12 weeks of age at initiation) were exposed to two cigarettes per day, 6 days/wk for up to 6 months.
Within each treatment group there were 3 timepoints for analysis: 1 week, 3 months, and 6 months. After one week, 3 months, and 6 months on study, 10 animals, 10 animals, and 12 animals respectively, from each group were sacrificed and analytical work on lungs and lung samples was performed (see below).
10 mL of sterile saline or drug was placed in the nebulizer and delivered to each group of five animals. Delivery proceeded until the nebulizer ran dry (about 30 minutes).
All were prepared in sterile saline. Vehicle control animals received sterile saline only.
The left lung was subjected to bronchoalveolar lavage (BAL) to determine levels of the inflammatory cell types macrophages and neutrophils, which were counted by morphology. BAL samples were collected using 0.5 mL rinses of the left lung.

[4] = tested on: MMP activity (assay designed primarily to detect MMP-9 activity); assay: MMP activity of BAL samples from smoking mice treated with nebulized ilomastat; type: in vivo; conditions: for MMP Activity of BAL sample (mAU/min): drug treated (ilomastat 100 ug/mL nebulized daily), individual mouse samples
Experimental: The 2-week study was a repeat of the 1-week study but used 10 animals/group.
At the end of each study, BAL samples were obtained from the lungs of each animal using established procedures and each sample was tested for MMP activity using an assay designed primarily to detect MMP-9 activity.
• 1. 150 μL of MMP Reagent Mix was added to each well. The reagent mix consisted of the appropriate dilutions of previously prepared stock solutions in order to yield the following final concentrations in 200 μL final volume/well: • HEPES stock (50 mM final) • CaCl2 stock (10 mM final) • Ellmans Reagent stock (1.25 mM final) • Substrate (Bachem #H7145) stock (475 μM final) • Q.S. with dH2O • 2. Microtiter plate was placed in the 30° C. incubator for 15 min. • 3. 50 μL/well of each BAL sample was added into the appropriate wells • 4. 50 μL/well of vehicle control buffer was added to blank well. • 5. 48 μL/well of vehicle control buffer and 2 μL of MMP-9 (20 ng, CalBiochem #444231) was added to the control well. • 6. Plate was placed in VersaMax Microtiter Plate Reader which was pre-equilibrated to 30° C. • 7. Abs410 was read every 5-6 min for 3 hrs Results and Conclusions: […]

sheep model for asthma = assay: Sheep model for asthma: carbachol challenge, DRC/PC 400%; type: in vivo; conditions: 30 μg dose, 24 hours after administration
Experimental: Phosphate buffered saline (PBS) (control) • 2. […] Results:
DRC/PC %400 refers to the amount of carbochol required to induce a 400% change in airway hyperresponsiveness. The amount required is measured as carbachol breath units (BU); the aerosol concentration of carbachol is fixed and the animal continues to inhale until the appropriate response in obtained. Thus, a higher value indicates a protective effect against an asthmatic reaction.

human MMP-9 = assay: MMP-9 fluorescent activity assay in induced sputum samples; type: biochemical
Experimental: Induced sputum (IS) samples were collected from 22 healthy smokers (HS) and 19 patients with clinical evidence of chronic obstructive pulmonary disease (COPD) (Inclusion criteria: FER<0.7 and FEV1 % Predicted 30-80%). The IS was processed using dithiothreitol as previously described by Pavord et al. (1997) Thorax 52, 498-501. 15 randomly selected IS were used for inhibitor studies (COPD n=7; HS n=8).
MMP-9 activity in IS was measured using a commercially available human MMP-9 fluorescent activity assay (Fluorokine® E, R&D Systems, Europe, UK). Following binding of MMP-9 (92, 82, 62 kDa forms) to an immobilized monoclonal antibody, a fluorogenic substrate linked to a quencher molecule was added. Any active MMP-9 cleaved the peptide linkers between the fluorophore and the quencher molecule allowing measurement of the fluorescence using a fluorimeter (Spectrafluor Plus, Tecan, UK). For inhibitor studies, the IS samples were incubated for 30 minutes at room temperature with the inhibitors prior to addition of the synthetic substrate.

[5] = target: MMP-12 (macrophage metalloelastase, ME) (Homo sapiens, UniProt P39900); conditions: read-out: MMP-12 (macrophage metalloelastase, ME) Kl; cited from earlier work
Sequence of MMP-12 (macrophage metalloelastase, ME) (P39900 106-470, species assumed): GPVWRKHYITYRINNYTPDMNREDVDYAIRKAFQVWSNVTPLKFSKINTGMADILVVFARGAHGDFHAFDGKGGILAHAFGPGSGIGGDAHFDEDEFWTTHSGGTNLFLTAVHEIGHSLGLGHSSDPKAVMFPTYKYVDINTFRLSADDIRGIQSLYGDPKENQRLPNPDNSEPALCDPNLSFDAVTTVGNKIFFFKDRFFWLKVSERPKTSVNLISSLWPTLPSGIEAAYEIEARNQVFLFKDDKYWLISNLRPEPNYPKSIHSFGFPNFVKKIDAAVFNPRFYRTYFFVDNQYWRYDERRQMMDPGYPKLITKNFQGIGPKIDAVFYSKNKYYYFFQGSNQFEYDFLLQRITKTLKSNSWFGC

Sequence of MMP-3 (stromelysin) (P08254 100-477, species assumed): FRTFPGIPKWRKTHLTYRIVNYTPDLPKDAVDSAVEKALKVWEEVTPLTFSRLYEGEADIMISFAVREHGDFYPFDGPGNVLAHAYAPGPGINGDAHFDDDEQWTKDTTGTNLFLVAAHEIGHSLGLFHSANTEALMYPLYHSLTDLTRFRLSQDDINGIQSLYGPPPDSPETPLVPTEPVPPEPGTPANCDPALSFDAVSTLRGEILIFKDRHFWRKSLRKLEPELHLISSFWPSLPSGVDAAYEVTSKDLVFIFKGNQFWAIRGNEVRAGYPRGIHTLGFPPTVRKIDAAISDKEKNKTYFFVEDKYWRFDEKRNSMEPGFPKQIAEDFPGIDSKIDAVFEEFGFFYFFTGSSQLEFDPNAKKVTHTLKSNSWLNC
Sequence of MMP-9 (gelatinase B) (P14780 94-707, species assumed): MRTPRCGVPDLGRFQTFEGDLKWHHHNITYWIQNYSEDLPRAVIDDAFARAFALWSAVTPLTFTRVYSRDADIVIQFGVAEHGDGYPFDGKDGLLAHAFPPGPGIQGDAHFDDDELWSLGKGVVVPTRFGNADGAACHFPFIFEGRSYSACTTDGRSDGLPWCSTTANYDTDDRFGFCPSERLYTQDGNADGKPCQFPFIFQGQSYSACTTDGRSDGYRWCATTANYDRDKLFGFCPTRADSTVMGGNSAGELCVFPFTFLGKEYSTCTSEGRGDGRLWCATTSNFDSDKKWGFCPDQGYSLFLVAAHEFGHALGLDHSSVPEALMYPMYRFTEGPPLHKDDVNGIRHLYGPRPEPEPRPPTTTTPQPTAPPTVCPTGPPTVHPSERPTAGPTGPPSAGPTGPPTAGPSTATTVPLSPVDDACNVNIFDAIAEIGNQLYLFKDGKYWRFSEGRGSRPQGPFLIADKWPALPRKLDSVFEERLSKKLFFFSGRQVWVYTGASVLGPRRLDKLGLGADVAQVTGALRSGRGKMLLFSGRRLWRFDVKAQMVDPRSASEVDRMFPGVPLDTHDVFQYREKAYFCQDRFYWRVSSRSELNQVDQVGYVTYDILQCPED

O=C(NO)C1(CS(=O)(=O)c2ccc(Oc3ccc(Cl)cc3)cc2)CCOCC1 [RS-130,830]
Ki (MMP-1 (collagenase-1)): 0.59 µM | Ki (MMP-3 (stromelysin)): 0.009 µM | Ki (MMP-7): 1.2 µM

CN1C(=O)N(C[C@@H](C(=O)NO)[C@@H](CC2CCCC2)C(=O)N2CCCCC2)C(=O)C1(C)C [Ro 32-3555]
Ki (MMP-2 (gelatinase A)): 0.154 µM | Ki (MMP-9 (gelatinase B)): 0.059 µM

CNC(=O)[C@H](Cc1c[nH]c2ccccc12)NC(=O)[C@@H](CC(=O)NO)CC(C)C [ilomastat, N-[2(R)-2(hydroxyamidocarbonylmethyl)-4-methylpentanoyl]-L-tryptophan methylamide]
solubility [1]: ≤ 15 mg/mL | % protection (Lm) ([2]; ilomastat dose 1 (100 ug/mL)): 83% | Lm vs. non-smokers (%) ([2]; ilomastat dose 1 (100 ug/mL)): 2.6% | % protection (Lm) ([2]; ilomastat dose 2 (50 ug/ml)): 96% | Lm vs. non-smokers (%) ([2]; ilomastat dose 2 (50 ug/ml)): 0.6% | % protection (Lm) ([2]; ilomastat dose 3 (10 ug/ml)): 42% | Lm vs. non-smokers (%) ([2]; ilomastat dose 3 (10 ug/ml)): 8.7% | Macrophages, cells per ml of BAL fluid ([3]; ilomastat dose 1 (100 ug/mL)): 1000 cells per ml | Neutrophils, cells per ml of BAL fluid ([3]; ilomastat dose 1 (100 ug/mL)): 100 cells per ml | Macrophages, cells per ml of BAL fluid ([3]; ilomastat dose 2 (50 ug/ml)): 1500 cells per ml | Neutrophils, cells per ml of BAL fluid ([3]; ilomastat dose 2 (50 ug/ml)): 220 cells per ml | Macrophages, cells per ml of BAL fluid ([3]; ilomastat dose 3 (10 ug/ml)): 2500 cells per ml | Neutrophils, cells per ml of BAL fluid ([3]; ilomastat dose 3 (10 ug/ml)): 50 cells per ml | MMP activity of BAL samples, in words ([4]; 1-week study, all five treated mouse samples): no detectable MMP activity | MMP activity of BAL samples, in words ([4]; 2-week study, all ten treated mouse samples): no detectable MMP activity | MMP Activity of BAL sample (mAU/min) ([4]; 2 week study): 0 mAU/min | MMP Activity of BAL sample (mAU/min) ([4]; Pilot study (1 week)): 0 mAU/min | effect against asthmatic reaction, in words (sheep model for asthma): clear protective effect | inhibitory effect on MMP-9 activity in induced sputum (human MMP-9; 30 uM, IS from COPD patients, p=0.249 (ns)): 9.2+/−7.2% | inhibitory effect on MMP-9 activity in induced sputum (human MMP-9; 30 uM, IS from healthy smokers (HS), p=0.015): 22.6+/−6.7% | inhibitory effect on MMP-9 activity in induced sputum (human MMP-9; 100 uM, IS from COPD patients, p=0.004): 42.5+/−9.3% | inhibitory effect on MMP-9 activity in induced sputum (human MMP-9; 100 uM, IS from healthy smokers (HS), p=0.008): 39.4+/−6.3% | Ki (MMP-3 (stromelysin)): 0.026 to 0.027 µM | Ki [5]: 0.0002 to 0.0004 µM
